Laboratory results reported in PubChem BioAssay AID252 (DTP/NCI, 2004).
“And” between values parts separate entries of the source, which are not always exact repeats. Equal values may be shown once. Inconclusive results and toxic doses are left out. How the source made its calls: active means survival T/C of 150% or more; inactive means T/C below 125% in these data.

Test system: BDF1 mice, intracerebral L1210 leukemia, survival T/C
Test: NCI In Vivo Anticancer Drug Screen. Data for tumor model L1210 Leukemia (intracerebral) in B6D2F1 (BDF1) mice
Details: higher = longer survival
How it was run: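 Readout is the T/C ratio: survival of compound-treated animals over that of vehicle-treated controls, in mice bearing transplantable tumour.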

[1] = endpoint: mean survival time, dose: 18.0 mg/kg/injection, schedule: Q01DX001 (ip), vehicle: carboxymethylcellulose (CMC)

Measured: T/C

CN=NNc1nc[nH]c1C(N)=O
inactive: endpoint: mean survival time, dose: 12.5 mg/kg/injection, schedule: Q01DX Z (ip), vehicle: carboxymethylcellulose (CMC) 102 % of control | endpoint: mean survival time, dose: 25.0 mg/kg/injection, schedule: Q01DX Z (ip), vehicle: carboxymethylcellulose (CMC) 114 % of control | endpoint: mean survival time, dose: 50.0 mg/kg/injection, schedule: Q01DX Z (ip), vehicle: carboxymethylcellulose (CMC) 111 % of control | endpoint: mean survival time, dose: 100.0 mg/kg/injection, schedule: Q01DX Z (ip), vehicle: carboxymethylcellulose (CMC) 87 % of control

Cc1c(O)ccc(=O)n1O
inactive: endpoint: mean survival time, dose: 49.0 mg/kg/injection, schedule: Q01DX Z (ip), vehicle: other 98 % of control | endpoint: mean survival time, dose: 73.0 mg/kg/injection, schedule: Q01DX Z (ip), vehicle: other 96 % of control | endpoint: mean survival time, dose: 110.0 mg/kg/injection, schedule: Q01DX Z (ip), vehicle: other 93 % of control | endpoint: mean survival time, dose: 165.0 mg/kg/injection, schedule: Q01DX Z (ip), vehicle: other 110 % of control | endpoint: mean survival time, dose: 247.0 mg/kg/injection, schedule: Q01DX Z (ip), vehicle: other 92 % of control

O=c1n(CC2CO2)c(=O)n(CC2CO2)c(=O)n1CC1CO1 (configuration not stated)
active: endpoint: median survival time, dose: 40.0 mg/kg/injection, schedule: Q01DX009 (ip), vehicle: saline 151 % of control
inactive: endpoint: median survival time, dose: 70.0 mg/kg/injection, schedule: Q01DX009 (ip), vehicle: saline 121 % of control | endpoint: median survival time, dose: 80.0 mg/kg/injection, schedule: Q01DX009 (ip), vehicle: saline 121 % of control | endpoint: median survival time, dose: 90.0 mg/kg/injection, schedule: Q01DX009 (ip), vehicle: saline 122 % of control

CN(N=O)C(N)=O
active: endpoint: mean survival time, dose: 72.0 mg/kg/injection, schedule: Q01DX001 (ip), vehicle: saline 152 % of control
inactive: endpoint: mean survival time, dose: 18.0 mg/kg/injection, schedule: Q01DX001 (ip), vehicle: saline 102 % of control | endpoint: mean survival time, dose: 36.0 mg/kg/injection, schedule: Q01DX001 (ip), vehicle: saline 110 % of control

O=C(O)CCCc1ccc(N(CCCl)CCCl)cc1
inactive: [1] 105 % of control | endpoint: mean survival time, dose: 27.0 mg/kg/injection, schedule: Q01DX001 (ip), vehicle: carboxymethylcellulose (CMC) 112 % of control | endpoint: mean survival time, dose: 41.0 mg/kg/injection, schedule: Q01DX001 (ip), vehicle: carboxymethylcellulose (CMC) 112 % of control

CN(N=O)C(=O)Nc1c[nH]c(=O)[nH]c1=O
inactive: endpoint: mean survival time, dose: 60.0 mg/kg/injection, schedule: Q01DX001 (ip), vehicle: saline 103 % of control | endpoint: mean survival time, dose: 120.0 mg/kg/injection, schedule: Q01DX001 (ip), vehicle: saline 104 % of control | endpoint: mean survival time, dose: 480.0 mg/kg/injection, schedule: Q01DX001 (ip), vehicle: saline 108 % of control | endpoint: mean survival time, dose: 960.0 mg/kg/injection, schedule: Q01DX001 (ip), vehicle: saline 86 % of control

C[C@H](N)C(=O)N[C@@H]1[C@H]2C(=C(O)C[C@@H](O)[C@@H]2O)C(=O)O[C@@H]1C
inactive: endpoint: mean survival time, dose: 125.0 mg/kg/injection, schedule: Q01DX Z (ip), vehicle: saline 97 % of control | endpoint: mean survival time, dose: 211.0 mg/kg/injection, schedule: Q01DX015 (ip), vehicle: saline 103 % of control | endpoint: mean survival time, dose: 250.0 mg/kg/injection, schedule: Q01DX Z (ip), vehicle: saline 107 % of control | endpoint: mean survival time, dose: 320.0 mg/kg/injection, schedule: Q01DX015 (ip), vehicle: saline 103 % of control | endpoint: mean survival time, dose: 480.0 mg/kg/injection, schedule: Q01DX015 (ip), vehicle: saline 102 % of control | endpoint: mean survival time, dose: 500.0 mg/kg/injection, schedule: Q01DX Z (ip), vehicle: saline 109 % of control | endpoint: mean survival time, dose: 720.0 mg/kg/injection, schedule: Q01DX015 (ip), vehicle: saline 103 % of control | endpoint: mean survival time, dose: 750.0 mg/kg/injection, schedule: Q01DX Z (ip), vehicle: saline 107 % of control | endpoint: mean survival time, dose: 1000.0 mg/kg/injection, schedule: Q01DX Z (ip), vehicle: saline 106 % of control | endpoint: mean survival time, dose: 1080.0 mg/kg/injection, schedule: Q01DX015 (ip), vehicle: saline 105 % of control | endpoint: mean survival time, dose: 1500.0 mg/kg/injection, schedule: Q01DX Z (ip), vehicle: saline 106 % of control | endpoint: mean survival time, dose: 2024.0 mg/kg/injection, schedule: Q01DX001 (ip), vehicle: saline 109 % of control | endpoint: mean survival time, dose: 3082.0 mg/kg/injection, schedule: Q01DX001 (ip), vehicle: saline 105 % of control

O=P(NC12CC3CC(CC(C3)C1)C2)(N1CC1)N1CC1
inactive: endpoint: mean survival time, dose: 9.0 mg/kg/injection, schedule: Q04DX003 (ip), vehicle: Klucel (hydroxypropylcellulose) (HPC) 112 % of control | endpoint: mean survival time, dose: 12.0 mg/kg/injection, schedule: Q01DX001 (ip), vehicle: Klucel (hydroxypropylcellulose) (HPC) 109 % of control | endpoint: mean survival time, dose: 18.0 mg/kg/injection, schedule: Q01DX001 (ip), vehicle: Klucel (hydroxypropylcellulose) (HPC) 117 % of control

O=C1C(Cl)=C(N2CC2)C(=O)C(Cl)=C1N1CC1
inactive: endpoint: mean survival time, dose: 0.62 mg/kg/injection, schedule: Q01DX009 (ip), vehicle: Klucel (hydroxypropylcellulose) (HPC) 98 % of control | endpoint: mean survival time, dose: 0.62 mg/kg/injection, schedule: Q01DX009 (ip), vehicle: saline 96 % of control | endpoint: mean survival time, dose: 1.25 mg/kg/injection, schedule: Q01DX009 (ip), vehicle: Klucel (hydroxypropylcellulose) (HPC) 98 % of control | endpoint: mean survival time, dose: 1.25 mg/kg/injection, schedule: Q01DX009 (ip), vehicle: saline 120 % of control and 96 % of control | endpoint: mean survival time, dose: 2.5 mg/kg/injection, schedule: Q01DX009 (ip), vehicle: Klucel (hydroxypropylcellulose) (HPC) 98 % of control | endpoint: mean survival time, dose: 5.0 mg/kg/injection, schedule: Q01DX009 (ip), vehicle: Klucel (hydroxypropylcellulose) (HPC) 96 % of control | endpoint: mean survival time, dose: 10.0 mg/kg/injection, schedule: Q01DX009 (ip), vehicle: Klucel (hydroxypropylcellulose) (HPC) 96 % of control | endpoint: mean survival time, dose: 20.0 mg/kg/injection, schedule: Q01DX009 (ip), vehicle: Klucel (hydroxypropylcellulose) (HPC) 90 % of control | endpoint: mean survival time, dose: 20.0 mg/kg/injection, schedule: Q01DX009 (ip), vehicle: saline 87 % of control

CCS(=O)(=O)Nc1cccc(Nc2c3cccc(C)c3nc3c(C)cccc23)c1OC
inactive: endpoint: mean survival time, dose: 12.5 mg/kg/injection, schedule: Q01DX009 (ip), vehicle: water 117 % of control | endpoint: mean survival time, dose: 12.5 mg/kg/injection, schedule: Q01DX009 (sc), vehicle: water 105 % of control | endpoint: mean survival time, dose: 25.0 mg/kg/injection, schedule: Q01DX009 (ip), vehicle: water 92 % of control | endpoint: mean survival time, dose: 25.0 mg/kg/injection, schedule: Q01DX009 (sc), vehicle: water 118 % of control | endpoint: mean survival time, dose: 50.0 mg/kg/injection, schedule: Q01DX009 (sc), vehicle: water 113 % of control | endpoint: mean survival time, dose: 100.0 mg/kg/injection, schedule: Q01DX009 (sc), vehicle: water 104 % of control

O=NN(CCCl)C(=O)Nc1ccc(C(=O)O)cc1
inactive: endpoint: mean survival time, dose: 2.5 mg/kg/injection, schedule: Q01DX001 (ip), vehicle: carboxymethylcellulose (CMC) 101 % of control | endpoint: mean survival time, dose: 3.7 mg/kg/injection, schedule: Q01DX001 (ip), vehicle: carboxymethylcellulose (CMC) 97 % of control | endpoint: mean survival time, dose: 5.0 mg/kg/injection, schedule: Q01DX001 (ip), vehicle: carboxymethylcellulose (CMC) 106 % of control | endpoint: mean survival time, dose: 6.0 mg/kg/injection, schedule: Q01DX001 (ip), vehicle: carboxymethylcellulose (CMC) 100 % of control | endpoint: mean survival time, dose: 7.5 mg/kg/injection, schedule: Q01DX001 (ip), vehicle: carboxymethylcellulose (CMC) 101 % of control | endpoint: mean survival time, dose: 8.0 mg/kg/injection, schedule: Q01DX001 (ip), vehicle: carboxymethylcellulose (CMC) 106 % of control | endpoint: mean survival time, dose: 12.0 mg/kg/injection, schedule: Q01DX001 (ip), vehicle: carboxymethylcellulose (CMC) 108 % of control | [1] 104 % of control

C[C@]12C=CC(=O)C=C1CC[C@@H]1[C@@H]2C(=O)C[C@@]2(C)[C@H]1CC[C@]2(O)C(=O)CO
inactive: endpoint: mean survival time, dose: 100.0 mg/kg/injection, schedule: Q01DX Z (sc), vehicle: steriod suspending solution 97 % of control | endpoint: mean survival time, dose: 120.0 mg/kg/injection, schedule: Q01DX001 (sc), vehicle: steriod suspending solution 102 % of control | endpoint: mean survival time, dose: 180.0 mg/kg/injection, schedule: Q01DX001 (sc), vehicle: steriod suspending solution 103 % of control | endpoint: mean survival time, dose: 200.0 mg/kg/injection, schedule: Q01DX Z (sc), vehicle: steriod suspending solution 109 % of control | endpoint: mean survival time, dose: 240.0 mg/kg/injection, schedule: Q01DX001 (sc), vehicle: steriod suspending solution 103 % of control | endpoint: mean survival time, dose: 250.0 mg/kg/injection, schedule: Q01DX Z (sc), vehicle: steriod suspending solution 112 % of control | endpoint: mean survival time, dose: 375.0 mg/kg/injection, schedule: Q01DX Z (sc), vehicle: steriod suspending solution 102 % of control | endpoint: mean survival time, dose: 500.0 mg/kg/injection, schedule: Q01DX Z (sc), vehicle: steriod suspending solution 97 % of control | endpoint: mean survival time, dose: 750.0 mg/kg/injection, schedule: Q01DX Z (sc), vehicle: steriod suspending solution 112 % of control

Cc1cc(C)c(NC(=O)N(CCCl)N=O)c(C)c1
inactive: endpoint: mean survival time, dose: 5.0 mg/kg/injection, schedule: Q01DX001 (ip), vehicle: other 97 % of control | endpoint: mean survival time, dose: 7.5 mg/kg/injection, schedule: Q01DX001 (ip), vehicle: other 98 % of control | endpoint: mean survival time, dose: 10.0 mg/kg/injection, schedule: Q01DX001 (ip), vehicle: other 103 % of control | endpoint: mean survival time, dose: 15.0 mg/kg/injection, schedule: Q01DX001 (ip), vehicle: other 107 % of control and 117 % of control | endpoint: mean survival time, dose: 20.0 mg/kg/injection, schedule: Q01DX001 (ip), vehicle: other 115 % of control | endpoint: mean survival time, dose: 128.0 mg/kg/injection, schedule: Q01DX001 (ip), vehicle: other 101 % of control
